The source of these data is paper PMC12463120, “Phenylalanine‐Based DNA‐Encoded Chemical Libraries for the Discovery of Potent and Selective Small Organic Ligands Against Markers of Cancer and Immune Cells” (Advanced Science, 2025).

Holding throughout (assay type): binding
The target in assay [1] is T1, NKG2D-Fc (Homo sapiens, UniProt P26718).
T1 construct: the extracellular domain of NKG2D was fused with an IgG Fc fragment; made in house; host or cells: CHO cells
T1 sequence (P26718 73-216 limits assumed): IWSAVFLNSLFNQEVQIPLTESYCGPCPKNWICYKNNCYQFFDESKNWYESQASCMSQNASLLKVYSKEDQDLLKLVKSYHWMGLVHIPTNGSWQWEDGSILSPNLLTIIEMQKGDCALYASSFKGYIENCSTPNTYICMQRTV
In words: ELISA affinity against NKG2D-Fc. The following applies: FITC derivatives; read-out: dissociation constant (KD) against NKG2D-Fc by ELISA. The method, then: Selection results were decoded with C++^[ [61] ^] and visualized using MATLAB R2019b (MathWorks). EFs were calculated by dividing the DNA sequence counts for each hit compound by the average DNA sequence count from the corresponding DEL screening. Additionally, Z‐score values were calculated following methods previously published,^[ [60] ^] as present in Supporting Information. Hit compounds with high EFs in the target protein selections and low EFs in the negative controls (anti‐target and streptavidin selections) were selected for hit validation activities. All compounds were synthesized using either solid‐phase peptide synthesis or solution‐phase methodologies. Affinities of fluorescein‐bearing hits were determined by FP or ELISA measurements. […] ACP3 colorimetric inhibition assay was performed with serially diluted compounds at a fixed concentration (5 mM in PBS) of para‐nitrophenyl phosphate as substrate. Binding kinetics were assessed on a Biacore X100 instrument with the target protein immobilized on a CM5 chip at 4′000 RUs. Cell binding of fluorescent ligands was evaluated using flow cytometry against antigen‐positive and antigen‐negative (wild‐type) cancer cells. in vitro tissue uptake of ^177Lu‐labelled DOTAGA PSMA‐radioligands was measured via autoradiography. […]
Grenier 384 transparent, flat-bottom well plates were used. Each test compound was measured in triplicate. […]
(An ELISA detects its analyte on a solid surface through an enzyme-linked reagent.)

For assay [2], the system named is various unrelated proteins, including TAAs and serological proteins. In words: ELISA against multiple proteins (specificity). The procedure:
2.13 ACP3 colorimetric enzymatic assay
Grenier 384 transparent, flat-bottom well plates were used. Each test compound was measured in triplicate. 16 µL of a solution of the compound (3µM, 5% DMSO in PBS for small molecules or PBS only for DNA-conjugates, pH 7.4) was loaded into the first well row. A serial 1:2 (on DNA) or 1:3 (off DNA) dilution in DMSO/PBS (5/95, off DNA) or only PBS (on DNA) was performed in a total volume per well of 8 µL. Human recombinant ACP3 (16 µL solution, 2.5 nM in PBS, pH 7.4) was added to each well.
After 10 min of incubation, 16 µL of a solution of para-nitrophenyl phosphate (pNPP, substrate, 5 mM in PBS, pH 7.4) was added. The plate was left to develop in the dark for 16 hours. Enzymatic reaction on the substrate (phosphate group removal by ACP3) was assessed by measuring absorption at 405 vs 620 nm on a Spectra Max Paradigm multimode plate reader ([…]).
2.14 Surface plasmon resonance (SPR)
SPR measurements were performed on a Biacore X100. […]
The protein (100 μL/well, 170 nM) was incubated for 2 h at 4 °C on a StreptaWell plate (transparent 96 - well plate, Roche #11645692001). […] The absorbance was measured at 450 nm (reference level, 620–650 nm) with a Spark multimode microplate reader (Tecan Life Sciences). […]

The target of assay [3] is T1, NKG2D-Fc. Put plainly: Size-exclusion chromatography co-elution with NKG2D-Fc. On the technique in general: In gel filtration, larger molecules generally elute earlier.

As for `CC(C)Oc1ccc(-c2cccc(C[C@H](NC(=O)c3ccccc3-c3ccc(C(F)(F)F)cc3)C(=O)N[C@@H](CCCCNC(=S)Nc3ccc4c(c3)C(=O)OC43c4ccc(O)cc4Oc4cc(O)ccc43)C(=O)O)c2)c(F)c1` [compound 30], the dissociation constant Kd at NKG2D-Fc [1] came out at 133 nM. Besides, the “selectivity by ELISA against multiple proteins” value in assay [2] is “high selectivity over various unrelated proteins”. Moreover, the “co-elution with NKG2D-Fc in size-exclusion chromatography” value on NKG2D-Fc [3] is recorded as “kinetically stable complex”.

Broadly, the Kd is the free concentration of one partner at which half of the binding sites on the other are occupied at equilibrium, for simple one-to-one binding.
